Measurements reported in US20250289809A1, “COMPOUNDS USEFUL FOR GOUT” (ATOM BIOSCIENCE AMERICA CORPORATION, priority 2022, published 2025).

Tests used:
[1] = tested on: potassium oxonate -induced hyperuricemic rats; assay: Serum uric acid level in potassium oxonate-induced hyperuricemic rats after 3-day administration; type: in vivo, Sprague Dawley (SD) rats; conditions: for Uric acid: serum, mean ± SD, n=6; for Effect on serum uric acid level after modeling, compared with the model group at the same time point: 2 mg/kg gavage, hyperuricemic rats, result in words
Text: Compound 30 and 32 were light yellow powders and triturated with 0.5% CMC-Na just prior to use to prepare suspensions having a corresponding concentration for gavage.
Febuxostat, purchased from Sigma, was triturated with 0.5% CMC-Na just prior to use to prepare a suspension having a corresponding concentration for gavage.
Sprague Dawley (SD) rats, SPF grade, 30, male, weighing 230-250 g, purchased from Shanghai SLAC Laboratory Animal Co., Ltd., permission number: SCXK (hu) 2022-0004, quality certification number: 20220004017238.
Uric acid assay kit (phosphotungstic acid reduction method), batch number: 20230224, purchased from NanJing Jiancheng Bioengineering Institute; Potassium oxonate, article number: 00164, batch number: T6GKM-TA, purchased from Tokyo Chemical Industry Co., Ltd., Japan (TCI); carboxymethyl cellulose sodium (CMC-Na), batch number: 20170810, chemically pure, purchased from Sinopharm chemical reagent Co., Ltd.
30 male SD rats weighed approximately 220-240 g after one week of adaptation. They were randomly divided into 5 groups according to the body weight, with 6 rats in each group, namely: (1) normal group (0.5% CMC-Na), (2) model group (0.5% CMC-Na), (3) Febuxostat, 2 mg/kg, (4) compound 30, 2 mg/kg and (5) compound 32, 2 mg/kg. The drugs in each group were prepared into a corresponding concentration suspension, and the administration volume was 0.5 mL/100 g.
After the rats in each group were purchased and adapted to feeding, they were fasted for 12 h, and intraperitoneally injected with potassium oxonate at a dose of 300 mg/kg to establish a model. 0.5 h after modeling, each test drug group was subjected to gavage administration once. The drug was administered continuously for 3 days. On day 3, blood samples were collected from the retro-orbital venous plexus before and 1, 3 and 5 h after injection of potassium oxonate. The samples were centrifuged at 3500 rpm for 10 min, and 30 μL of serum was collected to measure the uric acid level at each time point.
The measurement data of each test were expressed as (mean)±(standard deviation). The comparison between groups used ANOVA-Dunnett T test to examine the significance. P<0.05 was used as the significance index, and P<0.01 was used as the extremely significant index.

[2] = In vivo pharmacokinetic experiments in SD rats (oral and intravenous); conditions: male, Sprague-Dawley (SD), rat, plasma
Method: Preparation of compound stock solution: An appropriate amount of compound solid powder was be weighed and added in a certain amount of DMSO, and vortex ultrasound to obtain a 10 mg/mL stock solution.
(§1) Preparation of test compound for gavage: respectively taking an appropriate amount of the compound stock solution, adding a certain amount of Solutol HS15 solution, vortexing for 1 minute, then adding a certain amount of physiological saline, and fully mixing to obtain a 1 mg/mL solution.
as §1, with “for intravenous injection:” for “for gavage:”, “mixing until uniform, so as” for “mixing”, “a 0.5” for “a 1”
SD rats, male, SPF grade, 6-8 weeks old, purchased from JH Laboratory Animal Co. LTD. Permission number: SCXK (SH) 2022-0009, certification number: 20220009004139.
The experimental animals were fasted overnight before gavage administration, and were given food 4 hours after administration, with free access to water. Each test compound was divided into two groups, namely, intravenous administration group and oral administration group.
Blood samples (150 μL/sample) were collected from the jugular vein of SD rats before administration and at 5 min (only intravenous administration group), 15 min, 30 min, 1 h, 2 h, 4 h, 8 h and 24 h after administration, respectively. The samples were placed in centrifuge tubes containing anticoagulant sodium heparin and centrifuged at 4° C., 2000 g for 5 minutes to separate plasma. The plasma samples were analyzed by LC/MS/MS to detect the concentration of each test compound.
Non-compartmental model-related parameters were calculated by WinNonlin® Professional software.

[3] = 0 h (before potassium oxonate injection on day 3), 2 mg/kg gavage once daily for 3 days
[4] = 1 h after potassium oxonate 300 mg/kg i.p. on day 3, 2 mg/kg gavage for 3 days
[5] = 3 h after potassium oxonate 300 mg/kg i.p. on day 3, 2 mg/kg gavage for 3 days
[6] = 5 h after potassium oxonate 300 mg/kg i.p. on day 3, 2 mg/kg gavage for 3 days
[7] = Intravenous injection administration - 1 mg/kg
[8] = po, Gavage administration - 10 mg/kg

Compound	Uric acid [1, 3]	Effect on serum uric acid level after modeling, compared with the model group at the same time point [1]	Uric acid [1, 4]	Uric acid [1, 5]	Uric acid [1, 6]	AUC(0-inf) [2, 7]	Cmax [2, 7]	MRT inf [2, 7]	Tmax [2, 7]	half-life [2, 7]	AUC(0-inf) [2, 8]	Cmax [2, 8]	MRT inf [2, 8]	Tmax [2, 8]	half-life [2, 8]
CC(C)n1cc(C#N)c2cc(-n3cc(C(=O)OCCCCO[N+](=O)[O-])cn3)ccc21 [compound 30, [4-(nitrooxy)]butyl 1-(3-cyano-1-isopropyl-1H-indol-5-yl)-1H-pyrazole-4-carboxylate]	45.0 ± 8.4 µmol/L	significantly reduce	70.0 ± 14.8 µmol/L	94.2 ± 22.7 µmol/L	72.2 ± 11.4 µmol/L	–	–	–	–	–	–	–	–	–	–
Cc1nc(-c2ccc(OCC(C)C)c(C#N)c2)sc1C(=O)O [Febuxostat, reference compound]	39.2 ± 6.2 µmol/L	significantly reduce	34.4 ± 7.1 µmol/L	31.2 ± 7.6 µmol/L	24.7 ± 4.7 µmol/L	–	–	–	–	–	–	–	–	–	–
CCOC(=O)OC(C)OC(=O)c1cnn(-c2ccc3c(c2)c(C#N)cn3C(C)C)c1 (stereo not shown) [compound 11, {1-[(ethoxycarbonyl)oxy]}ethyl 1-(3-cyano-1-isopropyl-1H-indol-5-yl)-1H-pyrazole-4-carboxylate]	–	–	–	–	–	1100 ng·h/mL	1860 ng/mL	3.69 h	0.083 h	7.72 h	12400 ng·h/mL	4670 ng/mL	4.22 h	0.25 h	3.44 h
CC(C)n1cc(C#N)c2cc(-n3cc(C(=O)Oc4cccc(CO[N+](=O)[O-])c4)cn3)ccc21 [compound 32, phenyl [3-(nitrooxy)methyl] 1-(3-cyano-1-isopropyl-1H-indol-5-yl)-1H-pyrazole-4-carboxylate]	49.1 ± 6.7 µmol/L	significantly reduce	68.9 ± 15.8 µmol/L	82.2 ± 23.3 µmol/L	65.8 ± 13.6 µmol/L	–	–	–	–	–	–	–	–	–	–
